The target of series [1] is T1, human Kv4.3/KChIP2.2 potassium channel (Homo sapiens, UniProt Q9UK17).
T1 construct: expressed in transfected cells
T1 sequence (Q9UK17 1-655): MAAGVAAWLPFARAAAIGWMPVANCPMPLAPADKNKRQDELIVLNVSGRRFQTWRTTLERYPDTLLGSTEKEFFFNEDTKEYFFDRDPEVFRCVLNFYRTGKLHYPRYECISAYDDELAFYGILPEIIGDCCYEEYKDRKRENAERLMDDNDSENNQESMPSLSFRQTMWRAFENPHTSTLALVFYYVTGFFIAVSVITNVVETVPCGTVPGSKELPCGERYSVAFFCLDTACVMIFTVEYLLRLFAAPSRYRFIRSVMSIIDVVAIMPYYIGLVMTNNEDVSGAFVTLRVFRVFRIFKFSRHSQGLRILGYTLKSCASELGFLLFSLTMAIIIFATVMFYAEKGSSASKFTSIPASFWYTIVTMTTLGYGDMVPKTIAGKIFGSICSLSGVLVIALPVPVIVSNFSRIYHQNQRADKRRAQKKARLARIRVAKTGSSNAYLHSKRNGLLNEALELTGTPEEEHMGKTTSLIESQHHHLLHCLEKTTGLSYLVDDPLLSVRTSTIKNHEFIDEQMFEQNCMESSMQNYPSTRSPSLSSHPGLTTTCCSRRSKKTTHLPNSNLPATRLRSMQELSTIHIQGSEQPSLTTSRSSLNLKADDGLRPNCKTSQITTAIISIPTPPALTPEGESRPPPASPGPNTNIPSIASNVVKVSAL
As to the kind of experiment: Whole cell patch clamp, CHO-K1 cells stably expressing human Kv4.3/KChIP2.2. The format is cell-based. The note with it: CHO-K1. The method, then:
For this experiment, a recombinant CHO-K1 cell line stably expressing the human Kv4.3/KChIP2.2 potassium channel was used. The cells used for this experiment were kept in continuous culture under standard conditions (37° C., air supplemented with 7% CO2). The CHO-K1 Kv4.3/KChIP2.2 cells were kept in Iscove s modified DMEM (Dulbecco's Modified Eagle's Medium) medium (IMEM) supplemented with 100 U/ml Penicillin, 100 μg/ml Streptomycin, 7% fetal calf serum (FCS), 2.5 μg/ml amphotericin, 400 μg/ml G418, and 400 μg/ml Zeocin™. Cells were passed every 3-4 days after detachment using a Trypsin solution. The quality of the cultured cells was guaranteed by vitality and contamination tests. The culture of the cells was performed as described in protocol D hereunder.
10 mM stock solutions of the compounds were prepared in DMSO. Solutions of the compounds were prepared by dilution of stock solution in bath solution. If the required stock solution volume was theoretically below 1 μl, bath solutions with higher compound concentration were used for dilution. The maximal DMSO concentration during experiments was 0.1% (v/v).
Activity of the human Kv4.3/KChIP2.2 channel was investigated using the patch clamp technique in its whole cell mode. This means that the current needed for clamping the whole cell expressing the K^+-channel protein to a specific potential was measured. Experiments were performed using a patch clamp set-up. Technical equipment needed for manipulation of the cells was placed on a vibration-isolated table and shielded with a Faraday cage to minimize electrical noise. The amplifier and control system were placed in a rack outside the Faraday cage. The system consisted of an EPC9 or EPC10 patch clamp amplifier (HEKA, Lambrecht, Germany), and the perfusion system DADVC8 (ALA Scientific, New York, USA) controlled by the Pulse software package (HEKA, Lambrecht, Germany) installed on a personal computer. The pipettes used for patch clamping were made of borosilicate glass.
Measurements were performed at room temperature (20-25° C.). In each experiment (i.e. each cell) only one concentration of the compounds was investigated no cumulative dosages were performed. Each cell acted as its own control. […]
Between voltage pulses the cell was clamped to a holding potential of −80 mV (inside). The test protocols are illustrated in FIG. 1 and Table 4. The test protocol illustrated in FIG. 1a was used to characterize the properties of the Kv4.3/KChIP2.2 channel and to check the quality of the individual patch clamp experiment (voltage control). […] Each test protocol consisted of 4 segments.
After the whole cell configuration was established a current-voltage curve (IV activation 1; FIG. 1a and Table 4a) was recorded under constant superfusion with bath solution to check for Kv4.3/KChIP2.2 expression and the quality of the individual patch clamp experiment (voltage control). Subsequently, 14 test pulses (series 1; FIG. 1b and Table 4b) were applied at 0.1 Hz under constant superfusion with bath solution. The protocol was initiated by a voltage jump to 100 mV (400 ms) to achieve full inactivation. Then the Kv4.3/KChIP2.2 channels were transferred to the open state by depolarization to +40 mV for 300 milliseconds (activation). Only cells generating current amplitudes between 1 nA and 50 nA were used for the experimental procedure. No or negligible rundown was observed.
Then, 36 test pulses (series 2) were applied at 0.1 Hz under constant superfusion with the compound dissolved in bath solution. Finally, another current-voltage curve was recorded in the presence of the compounds (IV activation 2).
Three different types of analysis were used: Inhibition at the peak current, inhibition of translocated charge and inhibition 75 ms after activation at +40 mV (sustained current). The peak current/charge/current at 75 ms was determined using the online analysis tool of the HEKA pulse software package. […]
For orientation: In patch-clamp work, channel activity is measured electrically.

The mark [2] stands for this setting: remaining current measured after application of the compound and relative to the blank, read-out: Kv4.3 charge in %.
Where [3] appears, read: remaining peak height measured after application of the compound and relative to the blank, read-out: Kv4.3 peak in %.

Molecules are shown by their SMILES. Like-named read-outs stand apart in the source and are kept apart here.

One may read the melting point as the temperature, or range, at which the solid turns liquid. With `COc1ccccc1Nc1nc(C)c(C(=O)NCCOCc2ccccc2)s1` [Compound 88, 2-(2-methoxy-phenylamino)-4-methyl-thiazole-5-carboxylic acid (2-benzyloxy-ethyl)-amide], the melting point was in the range of 44.6 to 47.6 °C. Further, the remaining activity at 1 µM in series [1] (setting [2]) came out at 85%. Besides, the remaining activity at 1 µM in series [1] (setting [3]) is 95%.

In the case of `COc1ccccc1Nc1nc(C)c(C(=O)NCc2ccc(-c3cccs3)cc2)s1` [Compound 103, 2-(2-methoxy-phenylamino)-4-methyl-thiazole-5-carboxylic acid 4-thiophen-2-yl-benzylamide], the melting point was 195.6 to 198.6 °C. Moreover, in series [1] (setting [2]), the remaining activity at 1 µM stood at 64%. In addition, the remaining activity at 1 µM in series [1] (setting [3]) turned out to be 89%.

Regarding `COc1ccccc1Nc1nc(C)c(C(=O)NC2Cc3ccccc3C2)s1` [Compound 83, 2-(2-methoxy-phenylamino)-4-methyl-thiazole-5-carboxylic acid indan-2-ylamide], the melting point was 143.2 to 147.6 °C. For the same compound, the remaining activity at 1 µM in series [1] (setting [2]) turned out to be 77%. For the same compound, the remaining activity at 1 µM in series [1] (setting [3]) was 97%.

`COc1ccccc1Nc1nc(C)c(C(=O)N2CCc3ccccc3C2)s1` [Compound 85, (3,4-dihydro-1H-isoquinolin-2-yl)-[2-(2-methoxy-phenylamino)-4-methyl-thiazol-5-yl]-methanone] came in with a melting point of 159.3 to 163.5 °C. For the same compound, the remaining activity at 1 µM in series [1] (setting [2]) worked out at 82%. Further, the remaining activity at 1 µM in series [1] (setting [3]) came to 96%.

`COc1ccccc1Nc1nc(C)c(C(=O)NCc2cc(C)ccc2C)s1` [Compound 160, 2-(2-methoxy-phenylamino)-4-methyl-thiazole-5-carboxylic acid 2,5-dimethyl-benzylamide] registered a melting point of 124.1 to 124.9 °C. The remaining activity at 1 µM in series [1] (setting [2]) amounted to 90%. In addition, in series [1] (setting [3]), the remaining activity at 1 µM was 99%.

`COc1ccccc1Nc1nc(C)c(C(=O)NCc2ccc(CNC(C)=O)cc2)s1` [Compound 96, 2-(2-methoxy-phenylamino)-4-methyl-thiazole-5-carboxylic acid 4-(acetylamino-methyl)-benzylamide]: the melting point lay in the range of 199.7 to 200.3 °C. Besides, in series [1] (setting [2]), the remaining activity at 1 µM worked out at 85%. Further, in series [1] (setting [3]), the remaining activity at 1 µM worked out at 99%.

Compound `Cc1nc(NCc2ccccc2)sc1C(=O)N[C@H]1CCC[C@@H]1OCc1ccccc1` [Compound 211, 2-benzylamino-4-methyl-thiazole-5-carboxylic acid ((1S,2S)-2-benzyloxycyclopent-1-yl) amide] came in with a melting point of 185.1 to 185.8 °C. Further, in series [1] (setting [2]), the remaining activity at 1 µM is 86%. The remaining activity at 1 µM in series [1] (setting [3]) was 98%.

Compound `COc1ccccc1Nc1nc(C)c(C(=O)Nc2ccccc2)s1` [Compound 82, 2-(2-methoxy-phenylamino)-4-methyl-thiazole-5-carboxylic acid phenylamide] gave a melting point of 183.5 to 188.1 °C. Moreover, the remaining activity at 1 µM in series [1] (setting [2]) was 82%. Also, the remaining activity at 1 µM in series [1] (setting [3]) amounted to 91%.

`COc1ccccc1Nc1nc(C)c(C(=O)N2CCC(n3c(=O)[nH]c4ccccc43)CC2)s1` [Compound 170, 1-{1-[2-(2-methoxy-phenylamino)-4-methyl-thiazole-5-carbonyl]-piperidin-4-yl}-1,3-dihydro-benzoimidazol-2-one] registered a melting point greater than 250 °C. For the same compound, the remaining activity at 1 µM in series [1] (setting [2]) amounted to 90%. Further, the remaining activity at 1 µM in series [1] (setting [3]) was determined as 97%.

For the compound `COc1ccccc1Nc1nc(C)c(C(=O)N2Cc3ccccc3C2)s1` [Compound 84, (1,3-dihydro-isoindol-2-yl)-[2-(2-methoxy-phenylamino)-4-methyl-thiazol-5-yl]-methanone], the melting point lay in the range of 147.6 to 149.6 °C. Further, the remaining activity at 1 µM in series [1] (setting [2]) was 87%. The remaining activity at 1 µM in series [1] (setting [3]) was 99%.

For the compound `COc1ccccc1Nc1nc(C)c(C(=O)NCc2ccsc2)s1` [Compound 118, 2-(2-methoxy-phenylamino)-4-methyl-thiazole-5-carboxylic acid (thiophen-3-ylmethyl)-amide], the melting point was 153.4 to 154.8 °C. Moreover, the remaining activity at 1 µM in series [1] (setting [2]) turned out to be 85%. Besides, the remaining activity at 1 µM in series [1] (setting [3]) is 94%.

In turn, `COc1ccccc1Nc1nc(C)c(C(=O)NCc2ccc(-c3csnn3)cc2)s1` [Compound 161, 2-(2-methoxy-phenylamino)-4-methyl-thiazole-5-carboxylic acid 4-[1,2,3]thiadiazol-4-yl-benzylamide] showed a melting point of 191.6 to 194.5 °C. In addition, the remaining activity at 1 µM in series [1] (setting [2]) worked out at 75%. Moreover, the remaining activity at 1 µM in series [1] (setting [3]) stood at 89%.

On to `COc1ccccc1Nc1nc(C)c(C(=O)NCc2ccccc2)s1` [Compound 124, 2-(2-methoxy-phenylamino)-4-methyl-thiazole-5-carboxylic acid benzylamide], for which the melting point lay in the range of 153.6 to 156.2 °C. Besides, in series [1] (setting [2]), the remaining activity at 1 µM was found to be 90%. Further, the remaining activity at 1 µM in series [1] (setting [3]) came out at 95%.

With `CCOC(=O)c1cccc(Nc2nc(C)c(C(=O)N[C@H]3CCC[C@@H]3OCc3ccccc3)s2)c1` [Compound 89, 3-[5-((1S,2S)-2-benzyloxy-cyclopent-1-ylcarbamoyl)-4-methyl-thiazol-2-ylamino]-benzoic acid ethyl ester], the melting point lay within 145.7 to 148 °C. Also, the remaining activity at 1 µM in series [1] (setting [2]) came out at 55%. The remaining activity at 1 µM in series [1] (setting [3]) was determined as 93%.

In turn, `COc1ccccc1Nc1nc(C)c(C(=O)NCc2ccc(Oc3ccccc3)cc2)s1` [Compound 102, 2-(2-methoxy-phenylamino)-4-methyl-thiazole-5-carboxylic acid 4-phenoxy-benzylamide] displayed a melting point of 159.7 to 162.4 °C. Besides, the remaining activity at 1 µM in series [1] (setting [2]) was determined as 76%. In series [1] (setting [3]), the remaining activity at 1 µM is 89%.

Take `COc1ccccc1Nc1nc(C)c(C(=O)N2CCN(Cc3ccccc3)C[C@@H]2Cc2ccccc2)s1` [Compound 125, ((S)-2,4-dibenzyl-piperazin-1-yl)-[2-(2-methoxy-phenylamino)-4-methyl-thiazol-5-yl]-methanone]: the melting point lay in the range of 89.3 to 92.5 °C. The remaining activity at 1 µM in series [1] (setting [2]) was 74%. Besides, in series [1] (setting [3]), the remaining activity at 1 µM is 95%.

For `COc1ccccc1Nc1nc(C)c(C(=O)NCc2ccc(C)cc2)s1` [Compound 142, 2-(2-methoxy-phenylamino)-4-methyl-thiazole-5-carboxylic acid 4-methyl-benzylamide], the melting point was in the range of 166.8 to 168.3 °C. The remaining activity at 1 µM in series [1] (setting [2]) amounted to 74%. For the same compound, the remaining activity at 1 µM in series [1] (setting [3]) is 80%.

These data come from patent US20080125432A1 (Devgen NV, priority 2004, published 2008).
